Square brackets hold non-standard residues; d marks the D form. Peptide text beside a SMILES is read from it. * marks the point of attachment. DOTA(Ga) = O=C1CN2CCN3CCN(CC(=O)*)CCN(CC2)CC(=O)[O][Ga]([O]1)[O]C(=O)C3; DOTAGA = O=C(O)CN1CCN(CC(=O)O)CCN(C(CCC(=O)*)C(=O)O)CCN(CC(=O)O)CC1; DOTA = O=C(O)CN1CCN(CC(=O)O)CCN(CC(=O)*)CCN(CC(=O)O)CC1; X6 = CN1CC(=O)C2(C1)OC([C@@H]1CCCN1*)OC2=O; boroPro = OB(O)[C@@H]1CCCN1*
target: recombinant human fibroblast activation protein (FAP) (Homo sapiens (Human), UniProt Q12884); experiment: In vitro assay fibroblast activation protein IC50 (Example 21); assay type: biochemical; details: Z-Gly-Pro-AMC; 1.2 nM enzyme
Experimental: The purpose of this assay is to determine the IC50 of various inhibitors against recombinant human dipeptidyl peptidase IV (DPPIV), fibroblast activation protein (FAP) or prolyl oligopeptidase (PREP).
The assays are conducted in the following steps: • 1 Dissolve the compound in DMSO to a final concentration of 100 mM. From this, prepare a 1 mM stock at pH 7.5 in 50 mM Tris, 140 mM NaCl Buffer (FAP)/pH 7.5 in 25 mM Tris, 250 mM NaCl Buffer/[…]. • 2. Serial dilute (1:10) the 1 mM compound stocks prepared previously into the appropriate assay buffer (FAP: 50 mM Tris, 140 mM NaCl, pH 7.5/PREP: 25 mM Tris, 0.25 M NaCl, pH 7.5/DPPIV: 25 mM Tris, pH 8.0) to one row of a 96-well plate. • 3. […] Dilute the enzymes into their appropriate assay buffers. The final enzyme concentrations should be 0.1, 1.2, and 0.6 nM for DPPIV, FAP and PREP respectively. Add 180 μL to each well needed in columns 2-10. Column 1(A,B,C) should be prepared with 200 μl of appropriate assay buffer as control. Column 1(D,E,F,G,H) should be prepared with 20 μl of appropriate assay buffer and 180 ul enzyme as no inhibitor control. • 5. Add 20 μL of the compound of interest from the dilution plate prepared in step 2 to columns 2-10 of the assay plate where appropriate. Each sample should be tested in triplicate. Allow this to incubate for 10 minutes at room temperature, shaking the plate for the first two minutes. • 6. Add 10 μL of 20× substrate prepared in step 3 to each well and allow this to incubate for 15 minutes at room temperature, shaking the plate for the first two minutes. • 7. Read the fluorescence at λex: 380, λem: 460. (DPcore=[dAla|dSer|Gly]-[boroPro|Pro-nitrile], XXaa=alpha-amino acid)

Chain of recombinant human fibroblast activation protein (FAP) (Q12884 whole entry): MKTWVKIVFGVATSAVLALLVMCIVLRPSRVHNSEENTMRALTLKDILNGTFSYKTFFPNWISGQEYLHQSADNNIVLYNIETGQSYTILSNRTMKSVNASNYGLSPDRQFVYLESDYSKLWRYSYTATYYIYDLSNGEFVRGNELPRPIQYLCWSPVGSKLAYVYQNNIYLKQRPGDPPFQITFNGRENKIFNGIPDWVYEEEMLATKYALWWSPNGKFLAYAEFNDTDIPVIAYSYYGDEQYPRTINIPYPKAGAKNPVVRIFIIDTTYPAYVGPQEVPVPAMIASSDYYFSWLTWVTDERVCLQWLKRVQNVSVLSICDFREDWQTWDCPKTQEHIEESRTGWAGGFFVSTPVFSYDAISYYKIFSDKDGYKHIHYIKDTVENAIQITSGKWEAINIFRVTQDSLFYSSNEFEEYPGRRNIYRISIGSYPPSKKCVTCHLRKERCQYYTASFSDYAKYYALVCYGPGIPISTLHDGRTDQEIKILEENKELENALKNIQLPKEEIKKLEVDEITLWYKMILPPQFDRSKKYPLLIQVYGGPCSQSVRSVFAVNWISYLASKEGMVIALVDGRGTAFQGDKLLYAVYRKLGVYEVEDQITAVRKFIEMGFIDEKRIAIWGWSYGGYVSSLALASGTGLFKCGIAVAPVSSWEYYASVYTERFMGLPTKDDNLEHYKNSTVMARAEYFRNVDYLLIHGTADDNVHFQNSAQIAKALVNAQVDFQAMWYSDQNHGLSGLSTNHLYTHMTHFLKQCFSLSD

SMILES	IC50 [nM]
CC(C)[C@H](NC(=O)CNC(=O)CNC(=O)CNC(=O)CCC(C(=O)O)N1CCN(CC(=O)O)CCN(CC(=O)O)CCN(CC(=O)O)CC1)C(=O)N[C@H](C)C(=O)N1CCC[C@H]1B(O)O (some centres unmarked) [compound 6808] ({DOTAGA}-GGGV[dA]-boroPro)	11.5
CC(C)[C@H](NC(=O)CNC(=O)CNC(=O)CNC(=O)CN1CCN(CC(=O)O)CCN(CC(=O)O)CCN(CC(=O)O)CC1)C(=O)N[C@H](C)C(=O)N1CCC[C@H]1B(O)O [compound 6834] ({DOTA}-GGGV[dA]-boroPro)	26.8
CC(C)[C@H](NC(=O)CNC(=O)CNC(=O)CNC(=O)CNC(=O)CN1CCN2CCN3CCN(CC1)CC(=O)[O][Ga]([O]C(=O)C2)[O]C(=O)C3)C(=O)N[C@H](C)C(=O)N1CCC[C@H]1B(O)O [6839GA] ({DOTA(Ga)}-GGGGV[dA]-boroPro)	258
CC(C)[C@H](NC(=O)CCCNC(=O)CN1CCN2CCN3CCN(CC1)CC(=O)[O][Ga]([O]C(=O)C2)[O]C(=O)C3)C(=O)N[C@H](C)C(=O)N1CCC[C@H]1B(O)O [6614GA, DOTA(Ga)-GABA-Val-D-ala-boroPro]	218
CC(C)[C@H](NC(=O)[C@@H](C)NC(=O)CNC(=O)CNC(=O)CNC(=O)CN1CCN(CC(=O)O)CCN(CC(=O)O)CCN(CC(=O)O)CC1)C(=O)N[C@H](C)C(=O)N1CCC[C@H]1B(O)O [compound 6839] ({DOTA}-GGG[dA]V[dA]-boroPro)	21
CC(C)[C@H](NC(=O)CNC(=O)CN1CCN2CCN3CCN(CC1)CC(=O)[O][Ga]([O]C(=O)C2)[O]C(=O)C3)C(=O)N[C@H](C)C(=O)N1CCC[C@H]1B(O)O [6521GA]	277
CC(C)[C@H](NC(=O)CCCCCCNC(=O)CN1CCN2CCN3CCN(CC1)CC(=O)[O][Ga]([O]C(=O)C2)[O]C(=O)C3)C(=O)N[C@H](C)C(=O)N1CCC[C@H]1B(O)O [6949GA]	181
CC(C)[C@H](NC(=O)CNC(=O)CNC(=O)CNC(=O)CNC(=O)CNC(=O)CN1CCN(CC(=O)O)CCN(CC(=O)O)CCN(CC(=O)O)CC1)C(=O)N[C@H](C)C(=O)N1CCC[C@H]1B(O)O [compound 6848] ({DOTA}-GGGGGV[dA]-boroPro)	14.8
CC(C)[C@H](NC(=O)CCNC(=O)CN1CCN(CC(=O)O)CCN(CC(=O)O)CCN(CC(=O)O)CC1)C(=O)N[C@H](C)C(=O)N1CCC[C@H]1B(O)O [compound 6615, DOTA-betaala-Val-D-ala-boroPro]	121
CC(C)[C@H](NC(=O)CNC(=O)CNC(=O)CN1CCN(CC(=O)O)CCN(CC(=O)O)CCN(CC(=O)O)CC1)C(=O)N[C@H](C)C(=O)N1CCC[C@H]1C1OC(=O)C2(CN(C)CC2=O)O1 (some centres unmarked) [6522M] ({DOTA}-GGV[dA]-X6)	280
CC(C)[C@H](NC(=O)CNC(=O)CNC(=O)CNC(=O)CNC(=O)CNC(=O)CN1CCN2CCN3CCN(CC1)CC(=O)[O][Ga]([O]C(=O)C2)[O]C(=O)C3)C(=O)N[C@H](C)C(=O)N1CCC[C@H]1B(O)O [6848GA] ({DOTA(Ga)}-GGGGGV[dA]-boroPro)	180
CC(C)[C@H](NC(=O)CCCCCCCNC(=O)CN1CCN2CCN3CCN(CC1)CC(=O)[O][Ga]([O]C(=O)C2)[O]C(=O)C3)C(=O)N[C@H](C)C(=O)N1CCC[C@H]1B(O)O [6947GA, DOTA(Ga)-OCT-Val-Dala-boroPro]	219
CC(C)[C@H](NC(=O)CNC(=O)CNC(=O)CNC(=O)CNC(=O)CNC(=O)CNC(=O)CCC(C(=O)O)N1CCN(CC(=O)O)CCN(CC(=O)O)CCN(CC(=O)O)CC1)C(=O)N[C@H](C)C(=O)N1CCC[C@H]1B(O)O (some centres unmarked) [compound 6870] ({DOTAGA}-GGGGGGV[dA]-boroPro)	9.2
CC(C)[C@H](NC(=O)CCCCNC(=O)CN1CCN2CCN3CCN(CC1)CC(=O)[O][Ga]([O]C(=O)C2)[O]C(=O)C3)C(=O)N[C@H](C)C(=O)N1CCC[C@H]1B(O)O [6940GA, DOTA(Ga)-PEN-Val-Dala-boroPro]	110
CC(C)[C@H](NC(=O)CNC(=O)CNC(=O)CNC(=O)CNC(=O)CNC(=O)CCC(C(=O)O)N1CCN(CC(=O)O)CCN(CC(=O)O)CCN(CC(=O)O)CC1)C(=O)N[C@H](C)C(=O)N1CCC[C@H]1B(O)O (some centres unmarked) [compound 6869] ({DOTAGA}-GGGGGV[dA]-boroPro)	1.1
CC(C)[C@H](NC(=O)CCCCNC(=O)CN1CCN2CCN3CCN(CC1)CC(=O)[O][Lu]([O]C(=O)C2)[O]C(=O)C3)C(=O)N[C@H](C)C(=O)N1CCC[C@H]1B(O)O [6940LU, DOTA(Lu)-PEN-Val-Dala-boroPro]	23.6
CC(C)[C@H](NC(=O)CNC(=O)CNC(=O)CNC(=O)CN1CCN2CCN3CCN(CC1)CC(=O)[O][Ga]([O]C(=O)C2)[O]C(=O)C3)C(=O)N[C@H](C)C(=O)N1CCC[C@H]1B(O)O [6834GA] ({DOTA(Ga)}-GGGV[dA]-boroPro)	439
